The subject of series [1] is RSV infection. Conditions: intramuscularly at 15 mg/kg once a month for the duration of RSV season; selected infants; cited from earlier work.
A short description of series [2]: single dose PK in male ICR mouse (IV and PO). In kind it is in vivo. The conditions noted are these: male ICR mice; for AUC(0-t) / half-life: mouse, plasma. On the procedure: The single dose PK in male ICR mouse was performed to assess their pharmacokinetic properties. Two groups of animals were dosed via either bolus intravenous (IV) or oral gavage (PO) of the respective compound. The animals for oral administration were fasted overnight prior to dosing and food was resumed 4 hours postdose. Blood samples (approximately 400 μL) were collected via cardiac puncture after euthanasia by carbon dioxide inhalation at 2 min, 5 min, 15 min, 30 min, 1 h, 2 h, 4 h, 6 h, 8 h, and 24 h postdose for IV group, and at 5 min, 15 min, 30 min, 1 h, 2 h, 4 h, 6 h, 8 h, and 24 h postdose for PO group. Blood samples were placed into tubes containing sodium heparin and centrifuged at 8000 rpm for 6 minutes at 4° C. to separate plasma from the samples. Following centrifugation, the resulting plasma was transferred to clean tubes for bioanalysis on LC/MS/MS. The pharmacokinetic parameters were calculated using non-compartmental module of WinNonlin® Professional 5.2.

Series [3] relates to RSV Long strain. Briefly: Viral Cytopathic Effect (CPE) Assay. The series is classed as cell-based. Conditions: human respiratory syncytial virus, 144 h, cell viability after 6 days, Cell Counting kit-8. For orientation: Damage to the host cells serves as the signal in cytopathic effect assays.
Series [4] deals with RSV. Conditions: Phase III clinical trials; cited from earlier work.

In the case of “palivizumab: a humanized monoclonal antibody against RSV fusion (F) protein approved for prophylaxis in high-risk infants”, in series [1], the “reduction of hospitalization rate caused by RSV infection” value is 45-55%.

For orientation: AUC(0-t) means the area under the concentration-time curve up to a stated or last time point. Low values mean low exposure, high ones high exposure. What is called half-life is the time needed for the level to fall by half in the phase considered. The low end stands for rapid decline, the high end for slow decline. What is called EC50 is the concentration that produces a half-maximal response. Low readings indicate an effect from little substance, high ones a need for much substance. As for `CS(=O)(=O)c1nn(Cc2nc3cc(Cl)ccc3n2CCCC(F)(F)F)c2cnccc12` [Example 4-3, 1-{[5-Chloro-1-(4,4,4-trifluorobutyl)-1H-benzimidazol-2-yl]methyl}-3-(methylsulfonyl)-1H-pyrazolo[3,4-c]pyridine], in series [2] (IV (2 mg/kg)), the CLz stood at 43.4 mL/min/kg, the AUC(0-t) is 760 ng·h/mL and the half-life was 1.26 h. In addition, in series [2] (PO (6 mg/kg)), the F is on record as 46.0%, the exposure AUC(0-t) was determined as 1050 ng·h/mL and the half-life was 0.831 h. The compound also showed an EC50 in series [3] of 5 nM.

For the compound “motavizumab: A newer version monoclonal antibody, designed as potential replacement of palivizumab”, the benefit over palivizumab result in series [4] is recorded as “failed to show additional benefit over palivizumab”.

For `CS(=O)(=O)c1nn(Cc2nc3cc(Cl)ccc3n2CC2COC2)c2cnccc12` [Example 2-22, 1-{[5-Chloro-1-(oxetan-3-ylmethyl)-1H-benzimidazol-2-yl]methyl}-3-(methylsulfonyl)-1H-pyrazolo[3,4-c]pyridine], in series [2] (IV (1 mg/Kg)), the CLz came out at 16.9 mL/min/kg, the AUC(0-t) amounted to 976 ng·h/mL and the half-life is 1.55 h. Besides, in series [2] (PO (12.2 mg/kg)), the F is 23.8%, the exposure AUC(0-t) turned out to be 2430 ng·h/mL and the half-life was 2.45 h. The compound further displayed an EC50 in series [3] of 6 nM.

`CS(=O)(=O)c1nn(Cc2nc3cc(Cl)ccc3n2CCC(F)(F)F)c2cnccc12` [Example 2-21, 1-{[5-Chloro-1-(3,3,3-trifluoropropyl)-1H-benzimidazol-2-yl]methyl}-3-(methylsulfonyl)-1H-pyrazolo[3,4-c]pyridine]: in series [2] (IV (1.65 mg/Kg)), the CLz is given as 10.6 mL/min/kg, the AUC(0-t) was 2590 ng·h/mL and the half-life is 2.82 h. In series [2] (PO (8.27 mg/kg)), this compound gave an F of 37.1%, an AUC(0-t) of 4800 ng·h/mL and a half-life of 3.16 h. Besides, in series [3], the midpoint of the response, the EC50, lay at 19.1 nM.

For the compound `CS(=O)(=O)c1nn(Cc2nc3cc(Cl)ccc3n2C2CCNC2)c2cnccc12` (stereo not drawn) [Example 2-13, 1-{[5-Chloro-1-(pyrrolidin-3-yl)-1H-benzimidazol-2-yl]methyl}-3-(methylsulfonyl)-1H-pyrazolo[3,4-c]pyridine], a half-maximal effect in series [3] (EC50) was put at 44.2 nM.

For the compound `CS(=O)(=O)c1nn(Cc2nc3cc(Cl)ccc3n2-c2ccc(F)nc2)c2c[n+]([O-])ccc12` [Example 3-3, 1-{[5-Chloro-1-(6-fluoropyridin-3-yl)-1H-benzimidazol-2-yl]methyl}-3-(methylsulfonyl)-1H-pyrazolo[3,4-c]pyridine 6-oxide], the EC50 in series [3] was 1540 nM.

In the case of `CS(=O)(=O)c1nn(Cc2nc3cc(Cl)ccc3n2C2CNC2)c2cnccc12` [Example 2-14, 1-{[1-(Azetidin-3-yl)-5-chloro-1H-benzimidazol-2-yl]methyl}-3-(methylsulfonyl)-1H-pyrazolo[3,4-c]pyridine], in series [3], the midpoint of the response, the EC50, lay at 708 nM.

In series [3], `CS(=O)(=O)c1nn(Cc2nc3cc(Cl)ccc3n2C2CCC(O)C2)c2c[n+]([O-])ccc12` (stereo not drawn) [Example 2-12, 3-(5-Chloro-2-{[3-(methylsulfonyl)-6-oxido-1H-pyrazolo[3,4-c]pyridin-1-yl]methyl}-1H-benzimidazol-1-yl)cyclopentanol] gave an EC50 of 769 nM.

With `CC(C)S(=O)(=O)c1cn(Cc2nc3cc(Cl)ccc3n2CCCS(C)(=O)=O)c2ccccc12` [Example 1-6, 5-Chloro-1-[3-(methylsulfonyl)propyl]-2-{[3-(propan-2-ylsulfonyl)-1H-indol-1-yl]methyl}-1H-benzimidazole], the EC50 in series [3] is 119 nM.

Regarding `CC(C)(O)C(=O)N1CC[C@@H](n2c(Cn3nc(S(C)(=O)=O)c4ccncc43)nc3cc(Cl)ccc32)C1` [Example 6-5, 1-[(3R)-3-(5-Chloro-2-{[3-(methylsulfonyl)-1H-pyrazolo[3,4-c]pyridin-1-yl]methyl}-1H-benzimidazol-1-yl)pyrrolidin-1-yl]-2-hydroxy-2-methylpropan-1-one], in series [3], the concentration giving a half-maximal response (EC50) is 13 nM. Compared with the last compound, the EC50 is about 9.2-fold lower.

In series [3], `CS(=O)(=O)c1nn(Cc2nc3cc(Cl)ccc3n2CCCC(F)(F)F)c2ccccc12` [Example 4-1, 1-{[5-Chloro-1-(4,4,4-trifluorobutyl)-1H-benzimidazol-2-yl]methyl}-3-(methylsulfonyl)-1H-indazole] showed a concentration giving a half-maximal response (EC50) of 14.6 nM.

The record behind these values is patent US9206191B2, “Indazoles for the treatment and prophylaxis of respiratory syncytial virus infection” (Hoffmann-La Roche Inc., priority 2012, dated 2015).
